Test results as given in the supplement of paper PMC10307832.

Tests used:
Test in all cases: relative viability (nuclei count vs DMSO), 5 days (fraction); higher = more cells survive
VX-11e + Linsitinib = compound: CC1=CN=C(N=C1C2=CNC(=C2)C(=O)N[C@H](CO)C3=CC(=CC=C3)Cl)NC4=C(C=C(C=C4)F)Cl [VX-11e] + C[C@]1(O)C[C@@H](c2nc(-c3ccc4ccc(-c5ccccc5)nc4c3)c3c(N)nccn32)C1 [Linsitinib] (partner 1 µM)
Method in brief: (§1)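 Relative viability was taken as the ratio of nuclei in treated wells to nuclei in vehicle wells. Lung cancer cell lines in 1536-well plates received compounds by pin tool one day after seeding, either one drug alone or a fixed anchor-drug dose plus five library-drug doses (not always all listed) in √10 steps. Nuclei were counted on 4× images after 5 days of treatment, and values are medians of duplicate plates.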

VX-11e + Lapatinib = compound: CC1=CN=C(N=C1C2=CNC(=C2)C(=O)N[C@H](CO)C3=CC(=CC=C3)Cl)NC4=C(C=C(C=C4)F)Cl [VX-11e] + CS(=O)(=O)CCNCc1ccc(-c2ccc3ncnc(Nc4ccc(OCc5cccc(F)c5)c(Cl)c4)c3c2)o1 [Lapatinib] (partner 2 µM)
Method in brief: as §1

VX-11e + Alpelisib = compound: CC1=CN=C(N=C1C2=CNC(=C2)C(=O)N[C@H](CO)C3=CC(=CC=C3)Cl)NC4=C(C=C(C=C4)F)Cl [VX-11e] + Cc1nc(NC(=O)N2CCC[C@H]2C(N)=O)sc1-c1ccnc(C(C)(C)C(F)(F)F)c1 [Alpelisib] (partner 2 µM)
Method in brief: as §1

VX-11e + OSI-027 = compound: CC1=CN=C(N=C1C2=CNC(=C2)C(=O)N[C@H](CO)C3=CC(=CC=C3)Cl)NC4=C(C=C(C=C4)F)Cl [VX-11e] + COc1cccc2cc(-c3nc([C@H]4CC[C@H](C(=O)O)CC4)n4ncnc(N)c34)[nH]c12 [OSI-027] (partner 0.5 µM)
Method in brief: as §1

Cell Line | relative viability (VX-11e + Linsitinib; first compound 0.04 µM) | relative viability (VX-11e + Linsitinib; first compound 0.1265 µM) | relative viability (VX-11e + Linsitinib; first compound 0.4 µM) | relative viability (VX-11e + Linsitinib; first compound 1.265 µM) | relative viability (VX-11e + Linsitinib; first compound 4 µM) | relative viability (VX-11e + Lapatinib; first compound 0.04 µM) | relative viability (VX-11e + Lapatinib; first compound 0.1265 µM) | relative viability (VX-11e + Lapatinib; first compound 0.4 µM) | relative viability (VX-11e + Lapatinib; first compound 1.265 µM) | relative viability (VX-11e + Lapatinib; first compound 4 µM) | relative viability (VX-11e + Alpelisib; first compound 0.04 µM) | relative viability (VX-11e + Alpelisib; first compound 0.1265 µM) | relative viability (VX-11e + Alpelisib; first compound 0.4 µM) | relative viability (VX-11e + Alpelisib; first compound 1.265 µM) | relative viability (VX-11e + Alpelisib; first compound 4 µM) | relative viability (VX-11e + OSI-027; first compound 0.04 µM) | relative viability (VX-11e + OSI-027; first compound 0.1265 µM) | relative viability (VX-11e + OSI-027; first compound 0.4 µM) | relative viability (VX-11e + OSI-027; first compound 1.265 µM) | relative viability (VX-11e + OSI-027; first compound 4 µM)
201T | 1.01 | 1.02 | 1 | 0.867 | 0.966 | 0.948 | 0.988 | 0.943 | 0.816 | 0.942 | 1.01 | 0.989 | 0.995 | 1.08 | 0.92 | 0.728 | 0.678 | 0.823 | 0.603 | 0.645
A549 | 0.548 | 0.485 | 0.448 | 0.31 | 0.169 | 0.898 | 0.903 | 0.832 | 0.211 | 0.135 | 0.737 | 0.622 | 0.451 | 0.313 | 0.0519 |  |  |  |  | 
A-427 | 1.14 | 1.08 | 1.01 | 0.888 | 0.466 | 0.966 | 0.942 | 1.03 | 1.05 | 0.584 | 0.962 | 1.06 | 0.878 | 0.667 | 0.239 | 0.334 | 0.19 | 0.309 | 0.215 | 0.183
ABC-1 | 0.814 | 0.792 | 0.597 | 0.531 | 0.538 | 1.03 | 1.06 | 0.899 | 1.22 | 1.53 | 0.988 | 0.735 | 0.832 | 0.857 | 0.725 | 0.309 | 0.426 | 0.374 | 0.339 | 0.278
BEN | 1.04 | 0.701 | 0.923 | 0.54 | 0.783 |  | 0.637 | 0.888 | 0.45 | 0.728 | 1.14 | 0.906 | 1.04 | 0.612 | 0.806 |  | 0.274 | 0.302 | 0.285 | 0.242
CAL-12T | 0.873 | 0.816 | 0.765 | 0.465 | 0.282 |  |  | 0.544 | 0.565 | 0.348 | 1.4 | 1.03 | 1.07 | 0.898 | 0.295 | 0.402 | 0.523 | 0.424 | 0.312 | 0.199
COR-L23 | 1.04 | 0.905 | 0.816 | 0.508 | 0.248 | 1.3 | 1 | 0.806 | 0.634 | 0.398 | 0.913 | 0.742 | 0.669 | 0.379 | 0.17 | 0.733 | 0.591 | 0.579 | 0.347 | 0.185
COR-L 105 | 1.04 | 0.946 | 0.568 | 0.571 | 0.267 | 0.354 | 0.324 | 0.396 | 0.355 | 0.381 | 0.929 | 0.973 | 0.799 | 0.329 | 0.357 | 0.541 | 0.802 | 0.552 | 0.326 | 0.254
Calu-6 | 1.08 | 0.926 | 0.935 | 0.179 | 0.115 | 1.07 | 1.03 | 1.05 | 0.364 | 0.226 | 1.12 | 0.98 | 0.94 | 0.456 | 0.125 |  |  |  |  | 
ChaGo-K-1 |  |  |  |  |  |  |  |  |  |  |  |  |  |  |  | 0.546 | 0.533 | 0.395 | 0.527 | 0.439
EKVX | 1.01 | 0.971 | 1.05 | 0.87 | 0.559 | 0.205 | 0.184 | 0.189 | 0.108 | 0.144 | 0.953 | 0.869 | 0.984 | 0.752 | 0.335 | 0.692 | 0.661 | 0.703 | 0.667 | 0.223
EMC-BAC-2 | 0.831 | 0.74 | 0.743 | 0.712 | 0.602 | 0.736 | 0.807 | 0.945 | 0.837 | 0.732 | 0.731 | 0.662 | 0.687 | 0.618 | 0.534 | 0.312 | 0.387 | 0.458 | 0.421 | 0.357
EPLC-272H | 0.923 | 1.04 | 0.927 | 0.934 | 0.562 | 0.844 | 0.577 | 0.714 | 0.739 | 0.48 | 0.742 | 0.702 | 0.823 | 0.835 | 0.512 | 0.257 | 0.219 |  | 0.199 | 0.165
H3255 | 1.01 | 0.815 | 0.971 | 0.956 | 0.879 | 0.245 | 0.222 | 0.286 | 0.281 | 0.232 | 0.662 | 0.617 | 0.436 | 0.688 | 0.562 | 0.52 | 0.601 | 0.559 | 0.637 | 0.407
HARA | 1.01 | 0.9 | 1.02 | 1.04 | 0.417 | 0.673 | 0.653 | 0.79 | 0.666 | 0.374 | 0.772 | 0.776 | 0.787 | 0.865 | 0.338 | 0.269 | 0.372 | 0.279 | 0.186 | 0.0641
HCC-15 | 0.868 | 0.815 | 0.746 | 0.497 | 0.217 | 0.949 | 0.849 | 0.38 | 0.565 | 0.288 | 0.902 | 0.878 | 0.753 | 0.408 | 0.165 | 0.616 | 0.624 |  | 0.227 | 0.153
HCC-44 | 0.697 | 0.619 | 0.686 | 0.657 | 0.523 | 0.986 | 0.974 | 0.871 | 0.836 | 0.88 | 0.796 | 0.766 | 0.716 | 0.614 | 0.355 | 0.485 | 0.453 | 0.144 | 0.247 | 0.284
